# Measurements as given in US20140295512A1, “Ketol-Acid Reductoisomerases With Improved Performance Properties” (CALIFORNIA INSTITUTE OF TECHNOLOGY, priority 2011, published 2014).
# Several values for one entry are separate records, joined by “and”; a condition that tells them apart may be missing. Identical values can stand only once.
# Assays:
# E. coli KARI = E. coli KARI (Escherichia coli, UniProt P05793); experiment: KARI assay in 100-μL scale to measure IC50 in presence of R-DHIV; assay type: biochemical; settings: for Ki: calculated via Cheng-Prusoff equation
# Experimental: (§1) Assay buffers were prepared containing 250 mM potassium phosphate pH 7.0, 1 mM DTT, 10 mM MgCl2, 2.5 mM acetolactate, 200 μM NADPH, and increasing concentrations of R-DHIV (0-85.5 mM (final concentrations). Ten μL purified enzyme were placed into a flat-bottom assay plate (Evergreen Scientific). The reactions were initiated by addition of 90 μL assay buffer. The change in absorbance at 340 nm was monitored over 1 min in a plate reader (TECAN).
# Ec_ilvC^P2D1-A1 = experiment: NKR assay in microtiter plates to measure inhibition by DHIV; assay type: biochemical, E. coli; settings: 200 μM NADH, varied (S)-2-acetolactate, pH 7; read-out: K of Ec_ilvC^P2D1-A1 for DHIV (inhibition constant)
# Experimental: NKR activity was assayed kinetically by monitoring the decrease in NADH concentration by measuring the absorbance at 340 nm. A reaction buffer was prepared containing 250 mM potassium phosphate pH 7, 1 mM DTT, 200 μM NADH, 2.5 mM (S)-2-acetolactate, and 10 mM MgCl2. Ten μL purified enzyme were placed into a microtiter plate. The reaction was initiated by addition of 90 μL of the reaction buffer. The kinetics with respect to substrate conversion in presence of the inhibitor were determined by varying the substrate concentration (5.1, 2.55, 1.275, 0.638, 0.319, 0.159, and 0.0799 mM), while keeping the cofactor concentration constant at 200 μM. The inhibition constant was measured by repeating these measurements with different amounts of inhibitor (0, 0.07, 0.13, 0.26, 0.51, and 1.07 mM, final concentrations).
# L. lactis KARI = L. lactis KARI (Lactococcus lactis subsp. lactis, UniProt Q02138); experiment: KARI assay in 100-μL scale to measure IC50 in presence of R-DHIV; assay type: biochemical
# Experimental: as §1
# S. exigua KARI = S. exigua KARI (Slackia exigua, UniProt D0WGK0); experiment: as above; assay type: biochemical
# Experimental: as §1
# [1] = 2.5 mM acetolactate, 200 μM NADPH, pH 7.0
# [2] = calculated via Cheng-Prusoff equation
# S. exigua KARI, sequence (D0WGK0 whole entry): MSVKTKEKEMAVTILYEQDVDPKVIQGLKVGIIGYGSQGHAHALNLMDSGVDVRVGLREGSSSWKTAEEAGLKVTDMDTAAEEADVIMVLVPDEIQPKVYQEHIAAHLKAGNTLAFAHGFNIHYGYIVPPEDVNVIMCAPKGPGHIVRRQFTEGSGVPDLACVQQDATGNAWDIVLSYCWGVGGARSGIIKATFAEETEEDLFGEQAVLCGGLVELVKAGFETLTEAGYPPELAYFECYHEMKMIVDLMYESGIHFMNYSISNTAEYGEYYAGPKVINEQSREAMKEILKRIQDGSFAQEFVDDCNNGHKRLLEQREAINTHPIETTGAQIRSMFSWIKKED
# E. coli KARI, sequence (P05793 whole entry): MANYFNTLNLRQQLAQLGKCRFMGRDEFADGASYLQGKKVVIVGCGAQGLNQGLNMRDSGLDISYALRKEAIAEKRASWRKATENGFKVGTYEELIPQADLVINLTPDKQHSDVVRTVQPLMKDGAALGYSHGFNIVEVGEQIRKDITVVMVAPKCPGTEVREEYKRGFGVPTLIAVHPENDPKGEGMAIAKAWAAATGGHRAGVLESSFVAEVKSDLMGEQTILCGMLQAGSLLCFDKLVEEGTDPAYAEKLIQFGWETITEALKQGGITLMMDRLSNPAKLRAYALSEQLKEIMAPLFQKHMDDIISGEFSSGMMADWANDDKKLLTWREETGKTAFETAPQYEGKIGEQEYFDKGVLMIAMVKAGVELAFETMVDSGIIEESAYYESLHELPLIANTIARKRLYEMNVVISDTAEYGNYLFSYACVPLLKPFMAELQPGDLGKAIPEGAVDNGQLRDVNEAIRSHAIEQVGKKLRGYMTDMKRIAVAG
# L. lactis KARI, sequence (Q02138 whole entry): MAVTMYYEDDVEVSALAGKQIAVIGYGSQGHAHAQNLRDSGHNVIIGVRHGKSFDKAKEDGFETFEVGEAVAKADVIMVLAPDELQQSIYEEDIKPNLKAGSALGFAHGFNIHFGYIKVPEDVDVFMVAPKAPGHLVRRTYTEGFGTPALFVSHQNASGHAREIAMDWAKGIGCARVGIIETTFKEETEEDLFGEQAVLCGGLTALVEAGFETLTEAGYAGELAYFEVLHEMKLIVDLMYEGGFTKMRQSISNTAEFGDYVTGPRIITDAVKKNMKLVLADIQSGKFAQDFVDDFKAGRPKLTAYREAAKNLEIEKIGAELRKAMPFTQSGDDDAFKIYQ
SMILES,Ki (E. coli KARI),Ki (Ec_ilvC^P2D1-A1),IC50 (L. lactis KARI; [1]),Ki (L. lactis KARI; [2]),"IC50 on S. exigua KARI, times higher than IC50 of the E. coli KARI (S. exigua KARI)","IC50 on S. exigua KARI, times higher than IC50 of the L. lactis KARI (S. exigua KARI)","Ki on S. exigua KARI, times higher than Ki calculated for E. coli KARI (S. exigua KARI)",IC50 (S. exigua KARI; [1]),Ki (S. exigua KARI; [2]),IC50 (E. coli KARI; [1])
"CC(C)(O)C(O)C(=O)O (centres unmarked) [DHIV, 2,3-dihydroxyisovalerate]",100 µM,45 µM,,,,,,,,
CC(C)(O)[C@@H](O)C(=O)O [R-DHIV],100 µM,,2500 ± 700 µM,1700 µM,27 fold,10 fold,17 fold,26700 µM and 27000 µM,1700 µM,1000 µM and 1100 µM
